Data: ChEMBL document CHEMBL3603819, “Targeting zoonotic viruses: Structure-based inhibition of the 3C-like protease from bat coronavirus HKU4--The likely reservoir host to the human coronavirus that causes Middle East Respiratory Syndrome (MERS)” (Bioorg Med Chem, 2015)

Each molecule was assayed on Tylonycteris bat coronavirus HKU4. Settings: at 100 µM.
CC(C)c1ccc(N(C(=O)c2ccc(C#N)cc2)C(C(=O)NC(C)(C)C)c2cccnc2)cc1 (centres undefined) was tested, and the inhibition was 28%. With CC(C)(C)NC(=O)C(c1ccsc1)N(C(=O)c1ccc(C(F)(F)F)nc1)C1CC1 (centres undefined) the inhibition was 12%. Molecule Cc1ccc(C(C(=O)NC(C)(C)C)N(C(=O)c2ccco2)c2ccc(C(C)(C)C)cc2)cn1 (centres undefined) has an inhibition of 8%. CC(C)(C)NC(=O)C(c1cccnc1)N(C(=O)c1ncccn1)c1ccc(C(C)(C)C)cc1 (centres undefined) showed an inhibition of 13%. For CC(C)(C)NC(=O)C(c1cccnc1)N(C(=O)c1ccco1)c1ccc(-c2cccc(F)c2F)cc1 (centres undefined), the inhibition was 18%. For CC(C)(C)NC(=O)C(c1ccsc1)N(C(=O)Cn1nnc2ccccc21)c1ccc(NS(C)(=O)=O)cc1 (centres undefined), the inhibition was 27%. O=C(Nc1ccc(N(Cc2ccsc2)C(=O)Cn2nnc3ccccc32)cc1)C1CCC1 was tested, and the inhibition was 94%. With CC(C)(C)NC(=O)C(c1cccnc1)N(C(=O)c1cccc2c1CCCC2)c1ccc(F)cc1 (centres undefined) the inhibition was 22%. Work on CC(C)(C)NC(=O)C(c1ccsc1)N(C(=O)Cn1cnc2ccccc21)c1ccc(C(C)(C)C)cc1 (centres undefined) yielded an inhibition of 15%. In the case of CC(=O)Nc1ccc(N(C(=O)Cn2cnc3ccccc32)C(C(=O)NC(C)(C)C)c2ccsc2)cc1 (centres undefined), the inhibition is reported as 14%. In the case of O=C(Nc1ccc(N(Cc2ccsc2)C(=O)Cn2nnc3ccccc32)cc1)C1CC1, the inhibition is reported as 89%. CC(C)c1ccc(N(C(=O)c2n[nH]c3ccccc23)C(C(=O)NC(C)(C)C)c2ccsc2)cc1 (centres undefined) was tested, and the inhibition was 11%. CC(C)(C)NC(=O)C(c1ccsc1)N(C(=O)Cn1nnc2ccccc21)c1ccc(N)cc1 (centres undefined) gave an inhibition of 64%. CC(C)COc1ccc(N(C(=O)c2ccco2)C(C(=O)NC(C)(C)C)c2cccnc2)cc1 (centres undefined) showed an inhibition of 25%. For CC(C)(C)NC(=O)C(c1cccnc1)N(C(=O)c1cc[nH]n1)c1ccc(C(C)(C)C)cc1 (stereo in doubt; 53B), the inhibition was 28%. COc1ccccc1C(=O)N(c1ccc(C(C)(C)C)cc1)C(C(=O)NC(C)(C)C)c1cccnc1 (centres undefined) showed an inhibition of 17%. Molecule CC(C)c1ccc(N(C(=O)Cc2cccnc2)C(C(=O)NC(C)(C)C)c2cccnc2)cc1 (centres undefined) has an inhibition of 41%. CC(C)C(=O)Nc1ccc(N(Cc2ccsc2)C(=O)Cn2cc([Si](C)(C)C)nn2)cc1 gave an inhibition of 15%. With CC(C)(C)NC(=O)C(c1cccnc1)N(C(=O)Cc1ccccc1)c1ccc(C(C)(C)C)cc1 (centres undefined) the inhibition was 20%. Work on CC(C)(C)NC(=O)C(c1cccnc1)N(C(=O)c1ccc(C#N)cc1)c1ccc(F)cc1 (centres undefined) yielded an inhibition of 53%. CC(C)(C)NC(=O)C(c1cn[nH]c1)N(C(=O)c1ccco1)c1ccc(C(C)(C)C)cc1 (centres undefined) showed an inhibition of 12%. Work on CC(C)(C)NC(=O)C(c1cccnc1)N(C(=O)c1c[nH]c2ccccc12)C1CC1 (centres undefined) yielded an inhibition of 49%. CC(C)(C)NC(=O)C(c1ccsc1)N(C(=O)c1ccc(C#N)cc1)c1ccc(OCF)cc1 (centres undefined) gave an inhibition of 16%. For CC(C)(C)NC(=O)C(c1ccsc1)N(C(=O)Cn1nnc2ccccc21)c1ccc(NC(=O)c2cccs2)cc1 (centres undefined), the inhibition was 26%. CC(C)(C)NC(=O)C(c1cccnc1)N(C(=O)c1n[nH]c2ccccc12)c1ccc(C(C)(C)C)cc1 (centres undefined) showed an inhibition of 23%. CC(C)(C)NC(=O)C(c1ccsc1)N(C(=O)Cn1nnc2ccccc21)c1ccc(C(C)(C)C)cc1 (centres undefined) was tested, and the inhibition was 9%. Work on CC(C)(C)NC(=O)C(c1ccsc1)N(C(=O)Cn1nnc2ccccc21)c1ccc(NC(=O)C(C)(C)C)cc1 (centres undefined) yielded an inhibition of 18%. With CC(C)c1ccc(N(C(=O)c2cccc3c2CCCC3)C(C(=O)NC(C)(C)C)c2cccnc2)cc1 (centres undefined) the inhibition was 25%. In the case of CCC(=O)Nc1ccc(N(C(=O)Cn2nnc3ccccc32)C(C(=O)NC(C)(C)C)c2ccsc2)cc1 (centres undefined), the inhibition is reported as 34%. CC(C)(C)NC(=O)C(c1cccnc1)N(C(=O)c1ccc(C(F)(F)F)nc1)c1ccc(C(C)(C)C)cc1 (centres undefined) showed an inhibition of 15%. For Cc1nccn1CC(=O)N(c1ccc(N)cc1)C(C(=O)NC(C)(C)C)c1ccsc1 (centres undefined), the inhibition was 17%. CNc1ccc(N(Cc2ccsc2)C(=O)Cn2nnc3ccccc32)cc1 showed an inhibition of 91%. Cn1cnc(C(=O)N(c2ccc(C(C)(C)C)cc2)C(C(=O)NC(C)(C)C)c2cccnc2)c1 (centres undefined) showed an inhibition of 60%. With CCC(=O)Nc1ccc(N(C(=O)Cn2cnc3ccccc32)C(C(=O)NC(C)(C)C)c2ccsc2)cc1 (centres undefined) the inhibition was 68%.
